# Assay results reported in PubChem BioAssay (NCI).
#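 Tested at 5 concentrations; 48 h exposure; 96-well plates; endpoints linearly interpolated, else capped at highest concentration. TGI: total growth inhibition.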
# How the values were obtained:
# Assay in all cases: DTP human tumour cell line panel, 48 h
# [1] = system: 786-0 renal
# [2] = system: A498 renal
# [3] = system: A549 NSCLC
# [4] = system: ACHN renal
# [5] = system: BT-549 breast
# [6] = system: CAKI-1 renal
# [7] = system: CCRF-CEM leukemia
# [8] = system: COLO 205 colon
# [9] = system: DU-145 prostate
# [10] = system: EKVX NSCLC
# [11] = system: HCC-2998 colon
# [12] = system: HCT-116 colon
# [13] = system: HCT-15 colon
# [14] = system: HL-60(TB) leukemia
# [15] = system: HOP-62 NSCLC
# [16] = system: HOP-92 NSCLC
# [17] = system: HS 578T breast
# [18] = system: HT29 colon
# [19] = system: IGROV1 ovarian
# [20] = system: K-562 leukemia
# [21] = system: KM12 colon
# [22] = system: LOX IMVI melanoma
# [23] = system: M14 melanoma
# [24] = system: MALME-3M melanoma
# [25] = system: MCF7 breast
# [26] = system: MDA-MB-231 breast
# [27] = system: MDA-MB-435
# [28] = system: MDA-N
# [29] = system: MOLT-4 leukemia
# [30] = system: NCI-H226 lung
# [31] = system: NCI-H23 lung
# [32] = system: NCI-H460 lung
# [33] = system: NCI-H522 lung
# [34] = system: NCI/ADR-RES ovarian
# [35] = system: OVCAR-3 ovarian
# [36] = system: OVCAR-4 ovarian
# [37] = system: OVCAR-5 ovarian
# [38] = system: OVCAR-8 ovarian
# [39] = system: PC-3 prostate
# [40] = system: RPMI-8226 leukemia
# [41] = system: RXF 393 renal
# [42] = system: SF-268 CNS
# [43] = system: SF-295 CNS
# [44] = system: SF-539 CNS
# [45] = system: SK-MEL-2 melanoma
# [46] = system: SK-MEL-28 melanoma
# [47] = system: SK-MEL-5 melanoma
# [48] = system: SK-OV-3 ovarian
# [49] = system: SN12C renal
# [50] = system: SNB-19 CNS
# [51] = system: SNB-75 CNS
# [52] = system: SR leukemia
# [53] = system: SW-620 colon
# [54] = system: T-47D breast
# [55] = system: TK-10 renal
# [56] = system: U251 CNS
# [57] = system: UACC-257 melanoma
# [58] = system: UACC-62 melanoma
# [59] = system: UO-31 renal
smiles,measurement,setting,value
CC(C)NCC(O)c1cc(OCc2ccccc2)c(OCc2ccccc2)cc1NC(=O)CCC(=O)O (centres undefined),TGI,[1],20.9 µM
same,TGI,[2],26 µM
same,TGI,[3],24.5 µM
same,TGI,[4],13.1 µM
same,TGI,[5],31.1 µM
same,TGI,[6],21.3 µM
same,TGI,[7],13 µM
same,TGI,[8],4.01 µM
same,TGI,[9],25.8 µM
same,TGI,[10],26.9 µM
same,TGI,[11],6.47 µM
same,TGI,[12],17.9 µM
same,TGI,[13],12.4 µM
same,TGI,[14],15.4 µM
same,TGI,[15],29.7 µM
same,TGI,[16],19 µM
same,TGI,[17],30.7 µM
same,TGI,[18],12.9 µM
same,TGI,[19],24.2 µM
same,TGI,[20],4.32 µM
same,TGI,[21],9.51 µM
same,TGI,[22],2.97 µM
same,TGI,[23],3.48 µM
same,TGI,[24],28.6 µM
same,TGI,[25],19 µM
same,TGI,[26],20.9 µM
same,TGI,[27],17.4 µM
same,TGI,[28],5.97 µM
same,TGI,[29],14.8 µM
same,TGI,[30],33.2 µM
same,TGI,[31],26.5 µM
same,TGI,[32],3.71 µM
same,TGI,[33],11.7 µM
same,TGI,[34],28.7 µM
same,TGI,[35],28.2 µM
same,TGI,[36],24.8 µM
same,TGI,[37],30.6 µM
same,TGI,[38],21.5 µM
same,TGI,[39],21.3 µM
same,TGI,[40],8.65 µM
same,TGI,[41],18.6 µM
same,TGI,[42],22.7 µM
same,TGI,[43],15.7 µM
same,TGI,[44],30.9 µM
same,TGI,[45],3.32 µM
same,TGI,[46],9.37 µM
same,TGI,[47],4.97 µM
same,TGI,[48],29.2 µM
same,TGI,[49],24.3 µM
same,TGI,[50],28.3 µM
same,TGI,[51],23.9 µM
same,TGI,[52],9.01 µM
same,TGI,[53],7.51 µM
same,TGI,[54],25.7 µM
same,TGI,[55],22.5 µM
same,TGI,[56],18.2 µM
same,TGI,[57],26.4 µM
same,TGI,[58],8.69 µM
same,TGI,[59],15 µM
